Assay results as given in PMC8235216, “Structural Evidence of Active Site Adaptability towards Different Sized Substrates of Aromatic Amino Acid Aminotransferase from Psychrobacter Sp. B6” (Materials, 2021).

How the values were obtained:
Format in all cases: binding
[1] = biological target: T1, PsyArAT (psychrophilic aromatic amino acid aminotransferase) (Psychrobacter sp. B6, UniProt C7E5X4); assay: X-ray crystal structure (crystals grown in DL-malic acid); conditions: active site, competitive inhibitor; 2.1 M DL-malic acid pH 7.0, 0.1 M Tris-HCl pH 7.5
T1 construct: full-length Met1-Asp398, homodimer; E. coli; FOH/YOH/DOH complexes: protein as described previously; new construct: codon-optimised gene in pMCSG7, His6 tag removed by TEV, ArcticExpress (DE3)
T1 sequence (C7E5X4 entry or part of it): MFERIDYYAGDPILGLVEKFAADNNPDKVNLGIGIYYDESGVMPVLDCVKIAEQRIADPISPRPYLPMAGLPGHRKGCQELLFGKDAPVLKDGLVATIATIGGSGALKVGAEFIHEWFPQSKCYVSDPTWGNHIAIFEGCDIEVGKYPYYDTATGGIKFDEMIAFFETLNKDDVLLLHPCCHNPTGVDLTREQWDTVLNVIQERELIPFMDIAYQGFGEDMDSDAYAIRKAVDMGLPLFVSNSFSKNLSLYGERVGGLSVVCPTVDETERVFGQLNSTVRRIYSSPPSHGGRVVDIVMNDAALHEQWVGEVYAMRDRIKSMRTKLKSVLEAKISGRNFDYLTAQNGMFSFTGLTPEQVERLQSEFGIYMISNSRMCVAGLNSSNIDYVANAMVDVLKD

[2] = biological target: T1, PsyArAT (psychrophilic aromatic amino acid aminotransferase); assay: X-ray crystal structure (co-crystallisation); conditions: active site, competitive inhibitor; both monomers; 20-fold molar excess of ligand; pH 7.5; partial PLP occupancy
[3] = biological target: T1, PsyArAT (psychrophilic aromatic amino acid aminotransferase); assay: X-ray crystal structure (soaking of native crystals); conditions: active site, competitive inhibitor; bound in monomers A and C only; 10-fold molar excess of ligand, 5-fold PLP; pH 7.5

| Compound | X-ray crystal structure (co-crystallisation) [2] | other results |
| --- | --- | --- |
| O=C(O)C[C@H](O)C(=O)O [DOH, L-malic acid] |  | X-ray crystal structure (crystals grown in DL-malic acid) [1]: only L-malic acid (DOH) was bound in the active center |
| O=C(O)[C@@H](O)Cc1ccccc1 [FOH, 3-phenyllactic acid] | carboxyl group of FOH creates two parallel hydrogen bonds with the guanidine group of Arg374 |  |
| O=C(O)[C@@H](O)Cc1ccc(O)cc1 [YOH, 3-(4-hydroxyphenyl)-lactic acid] | interaction of the YOH inhibitor with the residues forming the active site of subunit A |  |
| O=C(O)[C@@H](O)Cc1c[nH]c2ccccc12 [WOH, 3-indolelactic acid] |  | X-ray crystal structure (soaking of native crystals) [3]: The carboxylic group of the WOH is planar to the Arg374 guanidine group |
